ChEMBL document CHEMBL1821576, “Synthesis and antitumour activity of β-hydroxyisovalerylshikonin analogues” (Eur J Med Chem, 2011)

Assays:
[1] = system: HeLa; test: Cytotoxicity against human HeLa cells by MTT assay; assay type: functional, cell-based
[2] = system: DU-145; test: Cytotoxicity against human DU145 cells by MTT assay; assay type: functional, cell-based
[3] = system: HeLa; test: Ratio of cyclophosphamide IC50 to compound IC50 for human HeLa cells; assay type: functional
[4] = system: DU-145; test: Ratio of cyclophosphamide IC50 to compound IC50 for human DU145 cells; assay type: functional
[5] = system: DU-145; test: Ratio of beta-hydroxyisovalerylshikonin IC50 to compound IC50 for human DU145 cells; assay type: functional
[6] = system: HeLa; test: Ratio of beta-hydroxyisovalerylshikonin IC50 to compound IC50 for human HeLa cells; assay type: functional

Structure (SMILES) | IC50 [1] [µM] | IC50 [2] [µM] | Ratio IC50 [3] | Ratio IC50 [4] | Ratio IC50 [5] | Ratio IC50 [6]
CC(C)=CC[C@@H](OC(=O)CCO)C1=CC(=O)c2c(O)ccc(O)c2C1=O | 67.6 | 55.3 |  |  |  | 
CCC(O)(CC)CC(=O)O[C@H](CC=C(C)C)C1=CC(=O)c2c(O)ccc(O)c2C1=O | 52 | 67 |  |  |  | 
CC(=O)OCCC(=O)O[C@H](CC=C(C)C)C1=CC(=O)c2c(O)ccc(O)c2C1=O | 17.3 | 15.7 |  |  |  | 
CCCCC(CC(=O)O[C@H](CC=C(C)C)C1=CC(=O)c2c(O)ccc(O)c2C1=O)OC(C)=O (stereo partly drawn) | 73.5 | 67.7 |  |  |  | 
CC(C)=CC[C@@H](OC(=O)c1ccoc1)C1=CC(=O)c2c(O)ccc(O)c2C1=O | > 100 | > 100 |  |  |  | 
CC(C)=CC[C@@H](OC(=O)c1ccco1)C1=CC(=O)c2c(O)ccc(O)c2C1=O | 80.3 | > 100 |  |  |  | 
CC(C)=CC[C@@H](OC(=O)C1CCOC1)C1=CC(=O)c2c(O)ccc(O)c2C1=O (stereo partly drawn) | 73.5 | 47.5 |  |  |  | 
CC(C)=CC[C@@H](OC(=O)C1CCCO1)C1=CC(=O)c2c(O)ccc(O)c2C1=O (stereo partly drawn) | 17 | 10.5 | 4 | 5 |  | 
CC(C)=CC[C@@H](OC(=O)C1CCCOC1)C1=CC(=O)c2c(O)ccc(O)c2C1=O (stereo partly drawn) | 60.5 | 29.7 |  |  |  | 
CC(C)=CC[C@@H](OC(=O)C1CCCCO1)C1=CC(=O)c2c(O)ccc(O)c2C1=O (stereo partly drawn) | > 100 | 24.7 |  |  |  | 
CC(C)=CC[C@@H](OCCO)C1=CC(=O)c2c(O)ccc(O)c2C1=O | 18.6 | 9.9 | 4 | 5 | 2 | 3
CC(=O)OCCO[C@H](CC=C(C)C)C1=CC(=O)c2c(O)ccc(O)c2C1=O | 41.5 | 15.5 |  |  |  | 
COCCO[C@H](CC=C(C)C)C1=CC(=O)c2c(O)ccc(O)c2C1=O | 62.4 | 43.2 |  |  |  | 
CC[C@@](C)(O)CC(=O)O[C@H](CC=C(C)C)C1=CC(=O)c2c(O)ccc(O)c2C1=O | 17.9 | 12.7 |  |  |  | 
CC(C)=CC[C@@H](OC[C@@H](C)O)C1=CC(=O)c2c(O)ccc(O)c2C1=O | 22.5 | 14.3 |  |  |  | 
CC(C)=CC[C@@H](OC[C@H](C)O)C1=CC(=O)c2c(O)ccc(O)c2C1=O | 40.3 | 24.5 |  |  |  | 
CCCCC(C)(O)CC(=O)O[C@H](CC=C(C)C)C1=CC(=O)c2c(O)ccc(O)c2C1=O (mixture of isomers) | 60.6 | 76.5 |  |  |  | 
CCCC(O)CC(=O)O[C@H](CC=C(C)C)C1=CC(=O)c2c(O)ccc(O)c2C1=O (mixture of isomers) | 59.3 | > 100 |  |  |  | 

Structure (SMILES) | IC50 [1] [µM] | IC50 [2] [µM] | Ratio IC50 [3] | Ratio IC50 [4] | Ratio IC50 [5] | Ratio IC50 [6]
CCCCC(O)CC(=O)O[C@H](CC=C(C)C)C1=CC(=O)c2c(O)ccc(O)c2C1=O (mixture of isomers) | 72.2 | 45.3 |  |  |  | 
CC(C)=CC[C@@H](OC(=O)CC(O)c1ccccc1)C1=CC(=O)c2c(O)ccc(O)c2C1=O (mixture of isomers) | 44.5 | 17 |  |  |  | 
CCC(C)(O)CC(=O)O[C@H](CC=C(C)C)C1=CC(=O)c2c(O)ccc(O)c2C1=O (mixture of isomers) | 25.2 | 16 |  |  |  | 
CCCC(C)(O)CC(=O)O[C@H](CC=C(C)C)C1=CC(=O)c2c(O)ccc(O)c2C1=O (mixture of isomers) | 72 | 75 |  |  |  | 
CC(C)=CC[C@@H](OC(=O)CC(C)(O)C(C)C)C1=CC(=O)c2c(O)ccc(O)c2C1=O (mixture of isomers) | 27.7 | 16.9 |  |  |  | 
CCCCCCC(C)(O)CC(=O)O[C@H](CC=C(C)C)C1=CC(=O)c2c(O)ccc(O)c2C1=O (mixture of isomers) | > 100 | > 100 |  |  |  | 
CC(C)=CC[C@@H](OC(=O)CC(C)(O)c1ccccc1)C1=CC(=O)c2c(O)ccc(O)c2C1=O (mixture of isomers) | 85.7 | > 100 |  |  |  | 
CCCC(CC(=O)O[C@H](CC=C(C)C)C1=CC(=O)c2c(O)ccc(O)c2C1=O)OC(C)=O (mixture of isomers) | 51.2 | 55.7 |  |  |  | 
CC(C)=CC[C@@H](OCC(C)O)C1=CC(=O)c2c(O)ccc(O)c2C1=O (mixture of isomers) | 24.7 | 16.1 |  |  |  | 
CCC(O)CO[C@H](CC=C(C)C)C1=CC(=O)c2c(O)ccc(O)c2C1=O (mixture of isomers) | 28.7 | 16.4 |  |  |  | 
CC(=O)OC(C)CO[C@H](CC=C(C)C)C1=CC(=O)c2c(O)ccc(O)c2C1=O (mixture of isomers) | 40.1 | 16.6 |  |  |  | 
CCC(CO[C@H](CC=C(C)C)C1=CC(=O)c2c(O)ccc(O)c2C1=O)OC(C)=O (mixture of isomers) | 44 | 25.4 |  |  |  | 
COC(C)CO[C@H](CC=C(C)C)C1=CC(=O)c2c(O)ccc(O)c2C1=O (mixture of isomers) | 53.4 | 16.6 |  |  |  | 
CCC(CO[C@H](CC=C(C)C)C1=CC(=O)c2c(O)ccc(O)c2C1=O)OC (mixture of isomers) | 63.5 | 45.7 |  |  |  | 
CC[C@](C)(O)CC(=O)O[C@H](CC=C(C)C)C1=CC(=O)c2c(O)ccc(O)c2C1=O (racemic) | 30.2 | 20.5 |  |  |  | 
CC(C)=CC[C@@H](OC(=O)CC(C)(C)O)C1=CC(=O)c2c(O)ccc(O)c2C1=O [BETA-HYDROXYISOVALERYLSHIKONIN] | 55 | 16.8 |  |  |  | 
O=P1(N(CCCl)CCCl)NCCCO1 (stereo not drawn) [CYCLOPHOSPHAMIDE ANHYDROUS] | 71.4 | 52.5 |  |  |  | 
O=c1[nH]cc(F)c(=O)[nH]1 [FLUOROURACIL] | > 100 | > 100 |  |  |  | 
